In one assay the target is T1, MAT2A homodimer (Homo sapiens, UniProt P31153).
T1 construct: inferred from Ni sepharose purification and imidazole elution; made in house; host or cells: Sf9 insect cells, recombinant baculovirus (Bac to Bac, pFASTBAC1)
Nature of the assay: Biochemical assay: inhibition of MAT2A (phosphate release, PiColorLock Gold). As to conditions: MAT2A IC50 score; read-out: Enzyme Inhibition (Example 275). In outline:
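Phosphate formed alongside SAM was read with PiColorLock Gold and quantified against a potassium phosphate standard curve. Reactions ran 60 min at 25 °C after adding a substrate mix of 500 μM ATP and 400 μM L-methionine (mix concentrations). Compound had first been preincubated 60 min with recombinant Sf9-derived MAT2A homodimer ([…]) in pH 8.0 Tris buffer containing MgCl2, KCl, EDTA and BSA.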

Assay [1] relates to SAM in HCT116 human colon carcinoma cell line engineered to delete the MTAP gene (MTAP −/−). Nature of the assay: Cellular assay of target engagement (SAM) by LC-MS/MS. It counts as cell-based. The note with it: Homo sapiens, HCT-116, 72 h, IC50 score, read-out: Cell 72 h SAM Inhibition (MTAP −/−; Example 276). As to the method:
Measurement of MAT2A activity in cells was made by direct quantitation of the abundance of the product of its enzymatic activity, SAM. Cancer cells were treated with candidate MAT2A inhibitors for a suitable incubation period, and the cells were then lysed using a reagent which quenched any further enzyme activity. Soluble metabolites including SAM were collected and SAM itself was directly measured from the lysate using quantitative LC-MS/MS.
A typical assay was performed using an HCT116 human colon carcinoma cell line which was genetically engineered to delete the MTAP gene (commercially available from Horizon Discovery). This cell line was utilized because it was determined that loss of the MTAP gene predicts sensitivity to MAT2A inhibitors. Cells were plated in 96-well dishes at appropriate cell density. Following 24 hours, cells were then treated with the candidate MAT2A inhibitor. Prior to addition to cells, the compound was first serially diluted in 100% DMSO, typically as a 3-fold serial dilution starting at 500× top dose with 10 dose points including DMSO only control. Compound was then transferred to a working stock plate in cell culture media by adding 5 μl of compound in DMSO to 495 μl of cell culture media. This working stock was then added to cells via a further 5-fold dilution, by adding 25 μl of working stock to 100 μl of cells in culture media. Following compound addition, cells were incubated at 37° C./5% CO2 for 72 hrs.
To quantitate SAM levels following compound treatment, cells were gently washed once in Ammonium Carbonate buffer (75 mM at pH 7.4), placed on dry ice, and lysed with metabolite extraction buffer (80% cold methanol and 20% water (v/v) with acetic acid at 1 M final concentration with 200 ng/mL deuterated d3-SAM as internal control). Following centrifugation at 4° C. at 3,200 rpm for 30 minutes, the supernatant was collected and stored at −80° C. until analysis by Liquid Chromatography with tandem Mass Spectrometry (LC-MS/MS). LC-MS/MS analysis was performed using an API6500 Mass Spectrometer (Sciex, Framingham, Mass., USA) operating in positive ion spray mode and equipped with a Waters UPLC Acquity (Waters, Milford, Mass., USA) BEH Amide column. Multiple Reaction Monitoring data was acquired for SAM and the d3-SAM standard, using a mass transition pair at m/z 399.2→250.1 and 402.2→250.1, respectively. In a typical LC-MS/MS analysis, the initial flow rate was 0.5 ml/min of 25% mobile phase A (acetonitrile and water at 5:95 (v/v) with 1% formic acid and 10 mM ammonium acetate) and 75% mobile phase B (acetonitrile and water at 95:5 (v/v) with 1% formic acid and 10 mM ammonium acetate), 0.2-0.5 minutes with 75%-35% mobile phase B, 25%-65% mobile phase A, at 0.5 min 65% mobile phase A and 35% mobile phase B, 1.0-1.1 minutes with 35%-75% mobile phase B, 65%-25% mobile phase A, at 1.1 min 25% mobile phase A and 75% mobile phase B with a total run time of 1.5 minutes.

A further assay concerns HCT116 MTAP−/−. The experiment in a line: Inhibition of cellular proliferation (Cell Titer Glo), HCT116 MTAP−/−. The format is cell-based, human. As to conditions: Homo sapiens, HCT-116, 96 h, 4 days, IC50 score, read-out: 4 Day Relative Growth Inhibition (MTAP −/−; Example 277). As to the method:
(§1) Test compound impact on cancer cell growth was assessed by treating cancer cells with compound for 4 days and then measuring proliferation using an ATP-based cell proliferation readout (Cell Titer Glo, Promega Corporation).
(§2) In a typical assay an isogenic pair of HCT116 human colon carcinoma cell lines which vary only in MTAP deletion status (HCT116 MTAP+/+ and HCT116 MTAP−/−) were plated in 96-well dishes at appropriate cell density. Following 24 hours, cells were then treated with the candidate MAT2A inhibitor. Prior to addition to cells, the compound was first serially diluted in 100% DMSO, typically as a 3-fold serial dilution starting at 500× top dose with 10 dose points including DMSO only control. Compound was then transferred to a working stock plate in cell culture media by adding 5 μl of compound in DMSO to 495 μl of cell culture media. This working stock was then added to cells via a further 5-fold dilution, by adding 25 μl of working stock to 100 μl of cells in culture media. Following compound addition, cells were incubated at 37° C./5% C02 for 4 days.
(§3) To measure inhibition of cellular proliferation, cells were allowed to equilibrate to room temperature for 30 minutes, and were then treated with 125 μl of Cell Titer Glo reagent. The plate was then covered with aluminum foil and shaken for 15 minutes to ensure complete mixing and full cell lysis. Luminescent signal was then measured using a plate-based luminometer Veritas version 1.9.2 using ATP standard curve to confirm assay reproducibility from run to run. This luminescence measure was converted to a proliferation index by subtracting from each data point the ATP luminescence signal measured from a bank (no cells) well and dividing by the ATP luminescence signal measured in 0.2% DMSO control well adjusted for signal in blank well. Compound activity was then represented as a percentage change in proliferation relative to a within-plate DMSO control against log10 of compound concentration in molar (M) units.
(Cellular ATP, detected with luciferase, serves as a proxy for viable cell number.)

The next assay relates to HCT116 MTAP+/+. Nature of the assay: Inhibition of cellular proliferation (Cell Titer Glo), HCT116 MTAP+/+. It counts as cell-based, human. As to conditions: Homo sapiens, HCT-116, 96 h, 4 days, IC50 score, read-out: 4 Day Relative Growth Inhibition (MTAP +/+; Example 277). As to the method:
as §1, §2, §3

Structures are written as SMILES.

T1 sequence (P31153 whole entry): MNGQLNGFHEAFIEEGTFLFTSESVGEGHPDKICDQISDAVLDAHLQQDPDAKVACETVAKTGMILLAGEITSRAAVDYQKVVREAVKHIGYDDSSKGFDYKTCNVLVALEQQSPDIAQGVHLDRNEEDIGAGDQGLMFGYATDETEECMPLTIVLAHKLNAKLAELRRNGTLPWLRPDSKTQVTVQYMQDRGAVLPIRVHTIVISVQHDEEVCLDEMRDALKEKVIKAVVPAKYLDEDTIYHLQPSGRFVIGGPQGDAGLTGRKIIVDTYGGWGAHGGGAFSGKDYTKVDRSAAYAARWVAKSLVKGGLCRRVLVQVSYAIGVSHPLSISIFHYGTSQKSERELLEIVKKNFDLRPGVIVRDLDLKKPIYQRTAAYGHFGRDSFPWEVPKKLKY

On to `Cn1cc2cc(-n3cc4ccc(OCC(F)F)nc4c(-c4ccc(OC(F)F)cc4)c3=O)ccc2n1` [Example 126-A], for which the IC50 is less than 100 nM at MAT2A homodimer, less than 100 nM in assay [1], less than 100 nM with HCT116 MTAP−/− and 100 to 10000 nM in the assay on HCT116 MTAP+/+.
Take `O=c1c(-c2ccc(Cl)cc2)c2nc(NCC(F)(F)F)ncc2cn1-c1ccc2ncn(C3CC3)c2c1` [Example 127, 8-(4-chlorophenyl)-6-(1-cyclopropyl-1H-benzo[d]imidazol-6-yl)-2-(2,2,2-trifluoroethylamino)pyrido[4,3-d]pyrimidin-7(6H)-one]: the IC50 at MAT2A homodimer is less than 100 nM; in assay [1], less than 100 nM; in the assay on HCT116 MTAP−/−, less than 100 nM; in the assay on HCT116 MTAP+/+, greater than 10000 nM.
`Cn1cnc2ccc(-n3cc4ccc(OCC(F)(F)F)nc4c(-c4ccc(OC(F)F)nc4)c3=O)cc21` [Example 127-A]: the IC50 on MAT2A homodimer was less than 100 nM; in assay [1] it was 100 to 1000 nM; in the assay on HCT116 MTAP−/− it was less than 100 nM; with HCT116 MTAP+/+, 100 to 10000 nM.
Regarding `Cn1cnc2ccc(-n3cc4ccc(OCC(F)(F)F)nc4c(-c4ccc(C(F)(F)F)nc4)c3=O)cc21` [Example 128-A], the IC50 was less than 100 nM on MAT2A homodimer, less than 100 nM in assay [1], less than 100 nM with HCT116 MTAP−/− and 100 to 10000 nM in the assay with HCT116 MTAP+/+.
For `O=c1c(-c2ccc(Cl)cc2)c2nc(NCC(F)(F)F)ncc2cn1-c1ccc2ncsc2c1` [Example 129, 6-(benzo[d]thiazol-6-yl)-8-(4-chlorophenyl)-2-(2,2,2-trifluoroethylamino)pyrido[4,3-d]pyrimidin-7(6H)-one], the IC50 on MAT2A homodimer is less than 100 nM; in assay [1], 100 to 1000 nM; with HCT116 MTAP−/−, 100 to 10000 nM; in the assay on HCT116 MTAP+/+ it was greater than 10000 nM.
As to `CCOc1ccc2cn(-c3ccc(OC)cc3)c(=O)c(-c3ccc(OC(F)F)nc3)c2n1` [Example 129-A], the IC50 at MAT2A homodimer was less than 100 nM; in assay [1], less than 100 nM; with HCT116 MTAP−/−, 100 to 10000 nM; in the assay with HCT116 MTAP+/+, 100 to 10000 nM.
As for `Cc1ccc(-c2c(=O)n(-c3ccc4nn(C)cc4c3)cc3ccc(OCC(F)(F)F)nc23)cn1` [Example 130-A], the IC50 on MAT2A homodimer was less than 100 nM; in assay [1], less than 100 nM; in the assay on HCT116 MTAP−/− it was less than 100 nM; in the assay with HCT116 MTAP+/+, 100 to 10000 nM.
Regarding `Cn1cc2cc(-n3cc4ccc(OCC(F)(F)F)nc4c(-c4ccc(OC(F)(F)F)nc4)c3=O)ccc2n1` [Example 131-A], the IC50 on MAT2A homodimer is less than 100 nM; in assay [1], less than 100 nM; in the assay with HCT116 MTAP−/−, 100 to 10000 nM; in the assay with HCT116 MTAP+/+, 100 to 10000 nM.
As to `Cc1c2cc(-n3cc4cnc(NCC(F)(F)F)nc4c(-c4ccc(Cl)cc4)c3=O)ccc2nn1C` [Example 132, 8-(4-chlorophenyl)-6-(2,3-dimethyl-2H-indazol-5-yl)-2-(2,2,2-trifluoroethylamino)pyrido[4,3-d]pyrimidin-7(6)-one], the IC50 at MAT2A homodimer is less than 100 nM; in assay [1] it was less than 100 nM; in the assay with HCT116 MTAP−/−, less than 100 nM; in the assay on HCT116 MTAP+/+ it was greater than 10000 nM.
Regarding `CCOc1ccc2cn(-c3ccc4ncn(C)c4c3)c(=O)c(-c3ccc(C)nc3)c2n1` [Example 132-A], the IC50 on MAT2A homodimer is less than 100 nM; in assay [1], less than 100 nM; with HCT116 MTAP−/− it was less than 100 nM; in the assay on HCT116 MTAP+/+ it was 100 to 10000 nM.
As for `O=c1c(-c2ccc(Cl)cc2)c2nc(NCC(F)(F)F)ncc2cn1-c1ccc2c(c1)CCO2` [Example 133, 8-(4-chlorophenyl)-6-(2,3-dihydrobenzofuran-5-yl)-2-(2,2,2-trifluoroethylamino)pyrido[4,3-d]pyrimidin-7(6H)-one], the IC50 at MAT2A homodimer was less than 100 nM; in assay [1] it was less than 100 nM; with HCT116 MTAP−/−, less than 100 nM; in the assay with HCT116 MTAP+/+, greater than 10000 nM.
With `CCOc1nc2c(-c3ccc(Cl)cc3)c(=O)n(-c3ccc4nn(C)cc4c3)cc2cc1C` [Example 134-A], the IC50 is less than 100 nM on MAT2A homodimer, less than 100 nM in assay [1], less than 100 nM in the assay on HCT116 MTAP−/− and greater than 10000 nM in the assay with HCT116 MTAP+/+.
Take `Cn1cnc2ccc(-n3cc4cnc(NCC(F)(F)F)nc4c(-c4ccc(Cl)cc4)c3=O)cc21` [Example 135, 8-(4-chlorophenyl)-6-(1-methyl-1H-benzo[d]imidazol-6-yl)-2-(2,2,2-trifluoroethylamino)pyrido[4,3-d]pyrimidin-7(6H)-one]: the IC50 is less than 100 nM at MAT2A homodimer, less than 100 nM in assay [1], less than 100 nM with HCT116 MTAP−/− and 100 to 10000 nM with HCT116 MTAP+/+.
As to `CN(C)CCn1cc2cc(-n3cc4cnc(NCC(F)(F)F)nc4c(-c4ccc(Cl)cc4)c3=O)ccc2n1` [Example 137, 8-(4-chlorophenyl)-6-(2-(2-(dimethylamino)ethyl)-2H-indazol-5-yl)-2-((2,2,2-trifluoroethyl)amino)pyrido[4,3-d]pyrimidin-7(6H)-one], the IC50 was less than 100 nM on MAT2A homodimer, 100 to 1000 nM in assay [1], 100 to 10000 nM with HCT116 MTAP−/− and greater than 10000 nM in the assay on HCT116 MTAP+/+.
Take `CCOc1ccc2cn(-c3ccc4nn(C)cc4c3)c(=O)c(-c3ccc(CF)nc3)c2n1` [Example 137-A, 2-ethoxy-8-(6-(fluoromethyl)pyridin-3-yl)-6-(2-methyl-2H-indazol-5-yl)-1,6-naphthyridin-7(6H)-one]: the IC50 at MAT2A homodimer was less than 100 nM; in assay [1], less than 100 nM; in the assay with HCT116 MTAP−/−, less than 100 nM; with HCT116 MTAP+/+, 100 to 10000 nM.
Take `Cn1cc2cc(-n3cc4ccc(CCC(F)(F)F)nc4c(-c4ccc(Cl)cc4)c3=O)ccc2n1` [Example 138-A, 8-(4-chlorophenyl)-6-(2-methyl-2H-indazol-5-yl)-2-(3,3,3-trifluoropropyl)-1,6-naphthyridin-7(6H)-one]: the IC50 at MAT2A homodimer was less than 100 nM; in assay [1], 100 to 1000 nM; in the assay on HCT116 MTAP−/−, 100 to 10000 nM; in the assay on HCT116 MTAP+/+, 100 to 10000 nM.
As for `O=c1c(-c2ccc(Cl)cc2)c2nc(NCC(F)(F)F)ncc2cn1-c1ccc2ncccc2c1` [Example 139, 8-(4-chlorophenyl)-6-(quinolin-6-yl)-2-((2,2,2-trifluoroethyl)amino)pyrido[4,3-d]pyrimidin-7(6)-one], the IC50 was less than 100 nM at MAT2A homodimer, less than 100 nM in assay [1], 100 to 10000 nM in the assay with HCT116 MTAP−/− and greater than 10000 nM with HCT116 MTAP+/+.
